Assay results: paper PMC6892925, “Development of Novel Silyl Cyanocinnamic Acid Derivatives as Metabolic Plasticity Inhibitors for Cancer Treatment” (Scientific Reports, 2019)

What was measured:
WiDr cell line = test: MTT cell proliferation inhibition assay; settings: Homo sapiens, read-out: MTT IC50
Experimental: (§4) Human triple-negative breast cancer MDA-MB-231 cells (ATCC) were grown in DMEM supplemented with 10% FBS (Atlanta Biologicals) and penicillin-streptomycin (50U/ml, 50 µg/ml, Invitrogen). Human colorectal adenocarcinoma WiDr cells (ATCC) were cultured in MEM medium supplemented with 10% FBS and penicillin-streptomycin. […] Murine metastatic breast cancer 4T1 cells were grown in RPMI-1640 supplemented with 10% FBS and penicillin-streptomycin. Human estrogen receptor positive breast cancer MCF7 cells (Masonic Cancer Center, University of Minnesota) were grown in MEM supplemented with 6% FBS, EGF (0.01 µg/ml), NEAA, HDC (1 µg/ml), insulin (10 µg/ml), HEPES (12 mM) and sodium pyruvate (1 mM).
(§5) Cell proliferation inhibition was evaluated using 3-(4,5-dimethylthiazol-2-yl)-2,5-diphenyl tetrazolium bromide (MTT) assay as reported previously[19].

4T1 cell line = test: MTT cell proliferation inhibition assay; settings: Mus musculus, 4T1, read-out: MTT IC50
Experimental: as §4, §5

MDA-MB-231 cell line = test: MTT cell proliferation inhibition assay; settings: Homo sapiens, MDA-MB-231, read-out: MTT IC50
Experimental: as §4, §5

[1] = test system: MCF7, 4T1, WiDr, and MDA-MB-231 cell lines; test: MTT cell proliferation inhibition, all cell lines tested; format: cell-based; settings: read-out: MTT IC50 values, span over all the cell lines tested
Experimental: as §5

[2] = test system: MCT4 expressing MDA-MB-231 cell line; test: Seahorse XFe96 glycolysis stress test (ECAR); format: cell-based, human; settings: 30 µM, MDA-MB-231, vs DMSO control
Experimental: (§1) Candidate compounds 2a and 2b were evaluated for their effect on glycolysis, glycolytic capacity and glycolytic reserve. This assay measures extracellular acidification rate (ECAR) which is directly correlated with the rate of glycolysis. The ECAR for both cell lines in the presence of the test compounds can be seen above (Fig. 4B,C). In this assay, cells were initially starved of glucose to reduce their ECAR. Upon addition of glucose, a rise in ECAR was observed proportional to the rate of glycolysis in each cell line. An increase in basal levels of glycolysis in cells treated with test compounds compared to the controls represents a shift toward dependency on glycolysis for ATP production. […] Glycolytic capacity is the maximum rate of glycolysis the cell can attain in the absence of OxPhos as an ATP source.
(§2) 20,000 cells/well were plated in 96-well Seahorse plates (Agilent, part no. 101085-004) and incubated 16–24 hours at 37 °C at 5% CO2. Flux pack sensors (Agilent, part no. 102416-100) were hydrated with XF calibrant solution (Agilent, part no. 100840-000) overnight at 37 °C in a non-CO2 incubator. The serum free assay media was prepared from Seahorse base medium (Agilent, part no. 102353-100) enriched with glutamine (1 mM) and sodium pyruvate (1 mM). The pH of the media was adjusted to 7.4. For glycolysis stress test the serum free assay media was used. For the mitochondrial stress test glucose (10 mM) was added to make an enriched serum free assay media. For both stress tests an 8X stock concentration of test compounds in their respective media was prepared for microplate injections in port A. Stock solutions of glucose (90 mM), oligomycin (10 μM), and 2-deoxyglucose (Chem Impex, 550 mM) were prepared such that their final working concentrations are 10 mM, 1 μM and 50 mM, respectively, for glycolysis stress test. For mitochondrial stress test, stock solutions of oligomycin (9 µM), FCCP (2.5–10 µM, cell line dependent), rotenone + antimycin A (5.5 µM) were prepared such that their final concentrations were 1 µM, 0.25–1 µM, and 0.5 µM, respectively in the enriched test media. Under glycolytic stress test, the cells were treated with test compounds, followed by the addition of glucose, oligomycin and 2-deoxyglucose at 14.29, 33.8, 53.35, 72.87 minutes, respectively. Under mitochondrial stress test, cells were treated with test compounds, followed by the addition of oligomycin, FCCP, and rotenone + antimycin A, at 14.29, 33.8, 53.35, 72.87 minutes, respectively. Extracellular acidification rates (ECAR) and oxygen consumption rates (OCR) were recorded in real-time for glycolysis and mitochondrial stress tests, respectively, using a Seahorse XFe96® analyzer (Agilent). The parameters related to glycolytic and mitochondrial functions were calculated utilizing the Wave 2.4.0 software (Agilent). ATP rate assay experiment was performed using manufactures (Agilent) protocol, and respective mitochondrial and glycolytic ATP rates were normalized to protein (BCA assay) and calculated using Wave 2.4.0 software.

[3] = test system: MCT1 expressing WiDr cell line; test: Seahorse XFe96 glycolysis stress test (ECAR); format: cell-based, human; settings: 30 µM, vs DMSO control
Experimental: as §1, §2

[4] = test system: MCT4 expressing MDA-MB-231 cell line; test: Seahorse XFe96 mitochondrial stress test (OCR); format: cell-based, human; settings: 30 µM, MDA-MB-231, vs DMSO control
Experimental: (§3) To assess mitochondrial stress, four parameters including maximal respiration, proton leak, ATP production, and spare respiratory capacity were measured. ATP production via OxPhos is dependent on mitochondrial integrity and can be measured directly via the oxygen consumption rate (OCR). Time-course OCR plots from WiDr and MDA-MB-231 cells were used to calculate 2a and 2b treatment-induced changes in specified parameters following the addition of various mitochondrial targeting agents (Fig. 5A,B). […] Spare respiratory capacity is a value that is not directly linked to mitochondrial damage but represents the cells ability to respond to rapid ATP demands.
as §2

[5] = test system: MCT1 expressing WiDr cell line; test: Seahorse XFe96 mitochondrial stress test (OCR); format: cell-based, human; settings: 30 µM, vs DMSO control
Experimental: as §3, §2

MCT1 = biological target: T1, MCT1 (Rattus norvegicus, UniProt P53987); test: MCT1 inhibition assay via L-[14C]-lactate uptake in RBE4 cells; format: cell-based; settings: L-[14C]-lactate uptake, MCT1 expressing RBE4 cell line; average ± SEM of three separate experiments; read-out: MCT1 IC50
T1 construct: using an L-[^14C]-lactate study on the MCT1 expressing RBE4 cell line; endogenous in cells; host or cells: RBE4 (rat brain endothelial 4) cells, a gift from F. Roux
T1 sequence (P53987 1-494): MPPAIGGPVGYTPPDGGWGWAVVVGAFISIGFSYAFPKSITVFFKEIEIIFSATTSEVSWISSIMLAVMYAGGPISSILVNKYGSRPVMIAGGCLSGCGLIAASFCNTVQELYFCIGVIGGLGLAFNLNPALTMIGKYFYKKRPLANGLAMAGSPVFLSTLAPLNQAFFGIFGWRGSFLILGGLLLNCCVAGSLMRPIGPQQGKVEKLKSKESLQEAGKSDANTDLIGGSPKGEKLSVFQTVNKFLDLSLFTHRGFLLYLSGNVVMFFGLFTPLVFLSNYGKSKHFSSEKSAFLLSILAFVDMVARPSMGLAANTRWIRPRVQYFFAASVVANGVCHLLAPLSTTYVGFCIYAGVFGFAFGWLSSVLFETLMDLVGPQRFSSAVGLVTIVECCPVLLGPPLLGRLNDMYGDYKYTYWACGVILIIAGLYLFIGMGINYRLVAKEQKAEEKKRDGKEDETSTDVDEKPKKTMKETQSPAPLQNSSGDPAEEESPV

MCF7 cell line = test: MTT cell proliferation inhibition assay; settings: Homo sapiens, MCF7, read-out: MTT IC50
Experimental: as §4, §5

## CC(C)(C)[Si](OCCOc1ccc(/C=C(\C#N)C(=O)O)cc1)(c1ccccc1)c1ccccc1 [2b]
WiDr cell line
  IC50: 6 ± 1 µM
4T1 cell line
  IC50: 22 ± 1 µM
MDA-MB-231 cell line
  IC50: 71 ± 1 µM
[1]
  IC50: 6 to 93 µM
[2]
  basal glycolysis (ECAR): significantly increased
  glycolytic capacity (ECAR): significantly reduced
  glycolytic reserve (ECAR): significant decrease
[3]
  basal glycolysis (ECAR): significantly increased
  glycolytic reserve (ECAR): significant decrease
[4]
  FCCP induced maximal respiration (OCR): significantly decreased
  oxygen consumption for mitochondrial ATP production (OCR): significantly decreased
  proton leak (OCR): significant increase
  spare respiratory capacity (OCR): significant decrease
[5]
  FCCP induced maximal respiration (OCR): significantly decreased
  oxygen consumption for mitochondrial ATP production (OCR): significantly decreased
  proton leak (OCR): significant increase
  spare respiratory capacity (OCR): significant decrease
MCT1
  IC50: 0.097 ± 0.007 µM
MCF7 cell line
  IC50: 35 ± 3 µM

## CC(C)(C)[Si](Oc1ccc(/C=C(\C#N)C(=O)O)cc1)(c1ccccc1)c1ccccc1 [2a]
WiDr cell line
  IC50: 41 ± 2 µM
4T1 cell line
  IC50: 56 ± 1 µM
MDA-MB-231 cell line
  IC50: 93 µM
[1]
  IC50: 6 to 93 µM
[2]
  basal glycolysis (ECAR): significantly increased
  glycolytic capacity (ECAR): significantly reduced
  glycolytic reserve (ECAR): significant decrease
[3]
  basal glycolysis (ECAR): significantly increased
  glycolytic reserve (ECAR): significant decrease
[4]
  FCCP induced maximal respiration (OCR): significantly decreased
  oxygen consumption for mitochondrial ATP production (OCR): significantly decreased
  proton leak (OCR): significant increase
  spare respiratory capacity (OCR): significant decrease
[5]
  FCCP induced maximal respiration (OCR): significantly decreased
  oxygen consumption for mitochondrial ATP production (OCR): significantly decreased
  proton leak (OCR): significant increase
  spare respiratory capacity (OCR): significant decrease
MCT1
  IC50: 0.408 ± 0.005 µM
MCF7 cell line
  IC50: 39 ± 3 µM
